# Results taken from US5235045A, “Non-azo naphthalimide dyes” (priority 1992, dated 1993).
# Read-outs that look alike come from different tables or passages of the source.
# How the values were obtained:
# [1] = tested on: Herpes simplex virus type 1; experiment: Effect of prior activation of Ed6Br with 420 nm light on HSV-1 (plaque assay); assay type: cell-based, MacIntyre strain; conditions: for log reduction at 25 µM / log reduction at 100 µM: Human alphaherpesvirus 1, 24 h, read-out: Log10 Reduction
# [2] = Binding kinetics of dye to synthetic vesicles (fluorescence increase)
# Procedure: All of the vehicles used in these studies were prepared to have a final lipid, egg lecithin+cholesterol concentration of 10 mg/ml. Cholesterol concentrations were varied between 0 and 45 mol % by varying the lipid composition from which the vesicles were produced. The subject dyes were added in 10% aqueous isopropyl alcohol solutions to vesicle suspensions in water. The dyes are non-fluorescent in 10% aqueous isopropy alcohol, but are highly fluorescent in vesicles. The increase in fluorescence was monitored at an excitation wavelength of 460 nm and an emission wavelength of 519 nm. Fluorescence intensity was measured as a function of time, and fit to a standard first-order kinetic plot.
# cytochrome c = experiment: Effect of irradiation on membrane-bound protein function: oxidation of vesicle-bound cytochrome c by CO(phen)3^3+; assay type: biochemical; conditions: 1×10^-7 M dye, irradiated; pH 7.5, 20° C.; without dye 25±1
# Procedure: Cytochrome C, a mitochondrial protein which is peripherally associated with membranes was studied as a model for the effect of photomodification of the membrane lipids on protein function. At pH 7.5 and 20° C., the rate of oxidation of vesicle-bound cytochrome c (7×10^-6 M) by CO(phen)3^3 + was 25±1 s^-1. Upon addition of Compound VII (1×10^-7 M) to the vesicles containing reduced cytochrome c, and subsequent irradiation as described above, the rate constant for oxidation of the bound cytochrome c under the same conditions was reduced to 2±1 s^-1.
# DAUDI cells = experiment: Photoinduced cell kill of DAUDI cells ([3H]-thymidine incorporation); assay type: cell-based; conditions: for CPM ([3H]-thymidine incorporation): 10% FCS medium
# Procedure: An additional study using DAUDI cells and lower concentrations of Compound VII was performed according to the same protocol for studying the photochemical kill of H9 cells mediated by Compound VII. Viability was determined by the trypan blue assay above, as well as by [^3 H]-thymidine incorporation. The [^3 H]-thymidine incorporated protocol was as follows:
# After irradiation, the cells were diluted to 3×10^5 cells/ml with medium containing twice the normal concentration of gentamycin. The cells were pipetted into a 96-well TC plat (100 μl/well) and incubated at 37° C. in a 5% CO2 incubator for 36 hours. At this time 1 μCi of [^3 ]-thymidine was added and allowed to incorporate for 6 hours. The cells were then harvested on glass fiber filters and placed into scintillation vials to which cocktail was added. The samples were counted on a Beckman model LS 6000IC scintillation counter.
# [3] = Tissue bonding of beef muscle strips with DiEd6Br and light; conditions: 0.1 millimolar
# From the text: Bonding together of the overlapping surfaces of two strips of swine dura mater and of two thin slices of beef muscle with application of DiEd6Br in Cremophor EL as a carrier and irradiation with 420 # 5 nm light filtered from a xenon arc lamp were studied.
# Thin strips approximately 10 cm long, 1 cm wide, and 0.05-0.1 cm thick were sliced from beef steak obtained from a local meat market. Surfaces of the strips of two sample pairs were coated with a stock solution of DiEd6Br in Cremophor EL (0.1 millimolar concentration) and placed together to give approximately 2 cm overlap. One overlapping strip sample was irradiated for 24 hours with water-filtered (IR spectrum absorber) light from a 150 w xenon arc lamp. Beam diameter incident on the sample was approximately 3 cm. The other sample was wrapped in aluminum foil, placed alongside the irradiated sample, and served as dark control.
# [4] = tested on: Human High Density Lipoprotein (HDL), Apoprotein I; experiment: Protein crosslinking with DiEd6Br: HDL; assay type: biochemical; conditions: 25.0 μM, 400 J/cm^2
# [5] = tested on: various individual protein preparations; experiment: Protein cross-linking with DiEd6Br and light (gel electrophoresis, general); assay type: biochemical
# From the text: Concomitant with the appearance of the heavier species with photoillumination with the decrease in intensity of electromigrated bands of the initially present protein.
# Gramacidin D = experiment: Effects of 420 nm radiation on liposomal-bound Gramacidin D and DiEd6Br fluorescence; assay type: biochemical; conditions: 100 J/cm^2, 420 nm; for Tryptophan fluorescence ratio irradiated/unirradiated (IT/DT): 0 μM dye 91.23
# [6] = tested on: Human serum Albumen (HSA); experiment: Protein crosslinking with DiEd6Br: human serum albumen; assay type: biochemical; conditions: 30.0 μM, 791 J/cm^2
# [7] = tested on: Herpes simplex virus type 1; experiment: Effect of DiEd6Br and light on aqueous suspensions of HSV-1 (plaque assay); assay type: cell-based, MacIntyre strain
compound,measurement,setting,value
"CCCCCCNc1c(Br)cc2c3c(cccc13)C(=O)N(CCCCCC)C2=O [Compound VII, 3-bromo-4-(hexyl)amino-N-hexyl-1,8-naphthalimide]",PFU/ml,"[1]; 25 μM, prior activation +",8.4 × 10^3 PFU/ml
same,PFU/ml,"[1]; 25 μM, prior activation -",4.5 × 10^4 PFU/ml
same,PFU/ml,"[1]; 100 μM, prior activation +",3.0 × 10^1 PFU/ml
same,PFU/ml,"[1]; 100 μM, prior activation -",9.0 × 10^3 PFU/ml
same,log reduction at 25 µM,"[1]; 25 μM, prior activation +",1.51
same,log reduction at 25 µM,"[1]; 25 μM, prior activation -",0.78
same,log reduction at 100 µM,"[1]; 100 μM, prior activation +",3.95
same,log reduction at 100 µM,"[1]; 100 μM, prior activation -",1.48
same,kill of HSV-1,"[1]; as low as 100 mM, activated prior to addition to viral suspension",> 99.99%
same,rate constant for binding,[2]; 0 mol % cholesterol,0.814 ± 0.005 × 10^-3 s^-1
same,rate constant for binding,[2]; 15 mol % cholesterol,1.020 ± 0.005 × 10^-3 s^-1
same,rate constant for binding,[2]; 30 mol % cholesterol,1.54 ± 0.02 × 10^-3 s^-1
same,rate constant for binding,[2]; 45 mol % cholesterol,2.75 ± 0.01 × 10^-3 s^-1
same,rate constant for oxidation of bound cytochrome c,cytochrome c,2 ± 1 s⁻¹
same,CPM ([3H]-thymidine incorporation),"DAUDI cells; 1 μM, hν",1.2 ± 0.4 × 10^2 CPM
same,CPM ([3H]-thymidine incorporation),"DAUDI cells; 1 μM, no hν",5.1 ± 0.3 × 10^4 CPM
same,CPM ([3H]-thymidine incorporation),"DAUDI cells; 5 μM, hν",1.1 ± 0.3 × 10^2 CPM
same,CPM ([3H]-thymidine incorporation),"DAUDI cells; 5 μM, no hν",4.8 ± 0.3 × 10^4 CPM
same,CPM ([3H]-thymidine incorporation),"DAUDI cells; 10 μM, hν",1.0 ± 0.4 × 10^2 CPM
same,CPM ([3H]-thymidine incorporation),"DAUDI cells; 10 μM, no hν",4.5 ± 0.2 × 10^4 CPM
same,photochemical cell inactivation,"DAUDI cells; concentrations as low as 1 μM, 10J/cm^2",highly efficient photochemical cell inactivator
CCCCCCN1C(=O)c2cccc3c(NCCNC(=O)CCCCC(=O)NCCNc4c(Br)cc5c6c(cccc46)C(=O)N(CCCCCC)C5=O)c(Br)cc(c23)C1=O [Compound XLIV],bonding of strips,[3]; dark control,separated under their own weight
same,bonding of strips,[3]; irradiated 24 hours,"discernable tactile finger pressure was felt when two hands were used to pull the irradiated strip apart, indicating bonding of the strip surface"
same,Inferred Crosslinked Species,[4]; Cremophor EL,8 Apopro-
same,"Inferred Crosslinked Species, Gel mw",[4]; 8 Apoprotein I units,141 kD
same,heavier molecular species in absence of light,[5]; no light,complete absence of these species
same,heavier molecular species,[5]; photoirradiation nominally 420 nm,"formation of slower electromigrating, thus heavier, molecular species"
same,DiEd6Br fluorescence ratio irradiated/unirradiated (ID/DD),Gramacidin D; 10 μM,5.03%
same,Tryptophan fluorescence ratio irradiated/unirradiated (IT/DT),Gramacidin D; 10 μM,10.57%
same,DiEd6Br fluorescence ratio irradiated/unirradiated (ID/DD),Gramacidin D; 20 μM,9.24%
same,Tryptophan fluorescence ratio irradiated/unirradiated (IT/DT),Gramacidin D; 20 μM,10.77%
same,DiEd6Br fluorescence ratio irradiated/unirradiated (ID/DD),Gramacidin D; 50 μM,20.26%
same,Tryptophan fluorescence ratio irradiated/unirradiated (IT/DT),Gramacidin D; 50 μM,14.40%
same,heavier bands,[6],many ill separated heavier bands merging together near
same,Inferred Crosslinked Species,[6]; first species,2 HSA
same,Inferred Crosslinked Species,[6]; second species,3 HSA
same,Inferred Crosslinked Species,[6]; third species,3 HSA
same,"Inferred Crosslinked Species, Gel mw",[6]; 2 HSA units,120 kD
same,"Inferred Crosslinked Species, Gel mw","[6]; 3 HSA units (so in the source), third species",240 kD
same,"Inferred Crosslinked Species, Gel mw","[6]; 3 HSA units, second species",180 kD
same,PFU/ml,"[7]; 2.5 μM, not irradiated",1.3 × 10^6 PFU/ml
same,PFU/ml,"[7]; 10 μM, not irradiated",1.2 × 10^6 PFU/ml
same,PFU/ml,"[7]; .156 μM, not irradiated",1.1 × 10^6 PFU/ml
same,PFU/ml,"[7]; .625 μM, not irradiated",1.0 × 10^6 PFU/ml
same,log reduction at 2.5 µM,"[7]; Human alphaherpesvirus 1, light or radiation study, 2.5 μM, not irradiated, read-out: Log10 Reduction",0
same,log reduction at 10 µM,"[7]; Human alphaherpesvirus 1, light or radiation study, 10 μM, not irradiated, read-out: Log10 Reduction",0.0348
same,log reduction at 0.156 µM,"[7]; Human alphaherpesvirus 1, light or radiation study, .156 μM, not irradiated, read-out: Log10 Reduction",0.0725
same,log reduction at 0.625 µM,"[7]; Human alphaherpesvirus 1, light or radiation study, .625 μM, not irradiated, read-out: Log10 Reduction",0.114
same,log reduction at 2.5 µM,"[7]; Human alphaherpesvirus 1, light or radiation study, Test #1, 2.5 μM, 20 J/cm2, 420 nm, read-out: Log10 Reduction",6
same,log reduction at 10 µM,"[7]; Human alphaherpesvirus 1, light or radiation study, Test #1, 10 μM, 20 J/cm2, 420 nm, read-out: Log10 Reduction",6
same,log reduction at 0.156 µM,"[7]; Human alphaherpesvirus 1, light or radiation study, Test #1, .156 μM, 20 J/cm2, 420 nm, read-out: Log10 Reduction",6
same,log reduction at 0.625 µM,"[7]; Human alphaherpesvirus 1, light or radiation study, Test #1, .625 μM, 20 J/cm2, 420 nm, read-out: Log10 Reduction",6
same,log reduction at 0.0099 µM,"[7]; Human alphaherpesvirus 1, light or radiation study, Test #2, .0099 μM, 20 J/cm2, 420 nm, read-out: Log10 Reduction",3.27
same,log reduction at 0.0195 µM,"[7]; Human alphaherpesvirus 1, light or radiation study, Test #2, .0195 μM, 20 J/cm2, 420 nm, read-out: Log10 Reduction",4.24
same,log reduction at 0.039 µM,"[7]; Human alphaherpesvirus 1, light or radiation study, Test #2, .039 μM, 20 J/cm2, 420 nm, read-out: Log10 Reduction",4.87
same,log reduction at 0.078 µM,"[7]; Human alphaherpesvirus 1, light or radiation study, Test #2, .078 μM, 20 J/cm2, 420 nm, read-out: Log10 Reduction",5.87
same,log reduction at 0.156 µM,"[7]; Human alphaherpesvirus 1, light or radiation study, Test #2, .156 μM, 20 J/cm2, 420 nm, read-out: Log10 Reduction",5.87
same,PFU/ml,"[7]; Test #1, 2.5 μM, 20 J/cm2, 420 nm",0 PFU/ml
same,PFU/ml,"[7]; Test #1, 10 μM, 20 J/cm2, 420 nm",0 PFU/ml
same,PFU/ml,"[7]; Test #1, .156 μM, 20 J/cm2, 420 nm",0 PFU/ml
same,PFU/ml,"[7]; Test #1, .625 μM, 20 J/cm2, 420 nm",0 PFU/ml
same,PFU/ml,"[7]; Test #2, .0099 μM, 20 J/cm2, 420 nm",4.0 × 10^2 PFU/ml
same,PFU/ml,"[7]; Test #2, .0195 μM, 20 J/cm2, 420 nm",4.3 × 10^1 PFU/ml
same,PFU/ml,"[7]; Test #2, .039 μM, 20 J/cm2, 420 nm",9.9 × 10^0 PFU/ml
same,PFU/ml,"[7]; Test #2, .078 μM, 20 J/cm2, 420 nm",0 PFU/ml
same,PFU/ml,"[7]; Test #2, .156 μM, 20 J/cm2, 420 nm",0 PFU/ml
same,kill of HSV-1,"[7]; as low as 0.0195 mM, 420 nm, 2.5% or less of serum proteins",> 99.99%
